{"source": "patent US20130142868A1", "about": "(priority 2010, published 2013)", "key": {"[1]": {"test_system": "A549 human lung cancer cells", "assay": "Alamar Blue cell viability assay, A549", "format": "cell-based", "settings": "72 h, 3 days incubation", "description": "HUVEC, LLC-PK1, and A549 lung cancer cells were purchased from ATCC. LLC-PK1 cells were cultured in DMEM supplemented with 10% FBS and antibiotics (100 U/mL penicillin G and 0.1 mg/mL streptomycin). HUVEC cells were cultured in F12-K media supplemented with 100 ug/ml endothelial cell growth supplement (BD Biosciences, Franklin Lakes, N.J.), 10% FBS, and antibiotics. A549 human lung cancer cells were cultured in F12-K media with 10% FBS and antibiotics. All cells were grown at 37° C. in a 5% CO2/95% air humidified atmosphere.\nCell viability experiments were performed using the Alamar Blue dye reduction assay (Invitrogen, Carlsbad, Calif.). The experimental cell lines were plated at 1.0×10^4 cells/well in 96-well plates in recommended media and allowed to adhere overnight. The next day, cells were incubated with liposomes or free CCNU, with drug concentrations from 2.5 to 100 μM. Cells were also incubated with empty RGD-expressed and non-targeted liposomes. The control cells were only incubated in the recommended media. All experiments were performed in quadruplicate. Incubations were allowed to carry out for 3 days. […] Next, the wells were analyzed with a fluorescence plate reader with absorption and emission of 485/535 nm. All cell viability results are expressed as a percentage of viable cells compared to control cells."}, "[2]": {"settings": "rat, in vivo"}, "[3]": {"settings": "in vivo; cited from earlier work"}, "[4]": {"test_system": "rats", "settings": "rat, in vivo"}}, "note": "Read-outs that look alike come from different tables or passages of the source."}
{"molecule": "O=NN(CCCl)C(=O)NC1CCCCC1", "note": "[Free Drug, 1-(2-chloroethyl)-3-cyclohexyl-1-nitroso-urea]", "values": [{"measurement": "IC50", "setting": "[1]; after aerosolization, read-out: IC50 values, post-aerosolization", "result": "70.5 ± 2.97", "unit": "µM"}, {"measurement": "IC50", "setting": "[1]; before aerosolization, read-out: IC50 values, pre-aerosolization", "result": "68.7 ± 2.48", "unit": "µM"}]}
{"molecule": "OC[C@@H](O)[C@@H](O)[C@H](O)[C@H](O)CO", "note": "[mannitol]", "values": [{"measurement": "concentration at olfactory bulbs", "setting": "[2]; Sprague-Dawley, 30 min", "result": "about 2 nmol/g"}, {"measurement": "concentration in the brain's cortex, brain stem and spine", "setting": "[2]; Sprague-Dawley, 30 min", "result": "0.2 to 0.4", "unit": "nmol/g"}, {"measurement": "cortex concentration, increase POD compared to IV", "setting": "[2]; Sprague-Dawley, 30 min", "result": 8.69, "unit": "fold"}, {"measurement": "cortex concentration, increase POD compared to nose drops", "setting": "[2]; Sprague-Dawley, 30 min", "result": 11.6, "unit": "fold"}, {"measurement": "olfactory bulb concentration, increase POD compared to IV", "setting": "[2]; Sprague-Dawley, 30 min", "result": 53.1, "unit": "fold"}, {"measurement": "olfactory bulb concentration, increase POD compared to nose drops", "setting": "[2]; Sprague-Dawley, 30 min", "result": 25.6, "unit": "fold"}, {"measurement": "olfactory bulb concentration, increase POD compared to IV", "setting": "[2]; Sprague-Dawley, 150 min", "result": 40.0, "unit": "fold"}, {"measurement": "olfactory bulb concentration, increase POD compared to nose drops", "setting": "[2]; Sprague-Dawley, 150 min", "result": 22.1, "unit": "fold"}, {"measurement": "concentration in the brain's cortex, brain stem and spine", "setting": "[2]; Sprague-Dawley, iv, 30 min", "result": "less than 0.02 nmol/g"}, {"measurement": "blood normalized olfactory bulb concentration, POD compared to nose drops", "setting": "[2]; 30 min", "result": 18.6, "unit": "fold"}, {"measurement": "brain-to-blood ratio (average of all brain tissues), increase POD compared to nose drops", "setting": "[2]; 30 min", "result": 3.4, "unit": "fold"}, {"measurement": "half life", "setting": "[3]", "result": 1.67, "unit": "h"}]}
{"molecule": "CN1CC[C@]23c4c5ccc(O)c4O[C@H]2[C@@H](O)C=C[C@H]3[C@H]1C5", "note": "[morphine]", "values": [{"measurement": "DTP % after POD administration", "setting": "[4]", "result": "38-55%"}, {"measurement": "DTP % after nose drops, depending on the dose", "setting": "[4]", "result": "0-10%"}]}
{"molecule": "Cc1c(O)cccc1C(=O)N[C@@H](CSc1ccccc1)[C@H](O)CN1C[C@H]2CCCC[C@H]2C[C@H]1C(=O)NC(C)(C)C", "note": "[nelfinavir]", "values": [{"measurement": "blood concentration, nose drop administration relative to POD administration", "setting": "[2]; Sprague-Dawley, 30 min", "result": 3.2, "unit": "times higher"}, {"measurement": "cortex concentration, increase POD compared to nose drops", "setting": "[2]; Sprague-Dawley, 30 min", "result": 4.05, "unit": "fold"}, {"measurement": "olfactory bulb concentration, increase POD compared to nose drops", "setting": "[2]; Sprague-Dawley, 30 min", "result": 1.91, "unit": "fold"}, {"measurement": "blood normalized olfactory bulb concentration, POD compared to nose drops", "setting": "[2]; 30 min", "result": 3.6, "unit": "fold"}, {"measurement": "brain-to-blood ratio (average of all brain tissues), increase POD compared to nose drops", "setting": "[2]; 30 min", "result": 2.1, "unit": "fold"}, {"measurement": "cortex concentration, increase POD compared to nose drops", "setting": "[2]; 30 min", "result": 4.0, "unit": "fold"}, {"measurement": "olfactory bulb concentration, increase POD compared to nose drops", "setting": "[2]; 30 min", "result": 1.4, "unit": "fold"}]}
